Data reported in patent publication US20170052170A1, “NOVEL CELL LINES AND METHODS” (priority 2009, published 2017).
Like-named read-outs stand apart in the source and are kept apart here. Peptide text beside a SMILES is read from it.

Assays:
GABAA α2β3γ2s (α2) = target: T1, GABAA α2β3γ2s (α2) (Homo sapiens, UniProt P18507+P28472+P47869, A343T); format: cell-based
T1 construct: expressed in transfected cells; host or cells: CHO
Method: (§1) Cells were plated 24 hours prior to assay at 10-25,000 cells per well in 384 well plates in growth media (Ham's F-12 media plus FBS and glutamine). […] Incubation was for 1 hour, followed by plate loading onto the high throughput fluorescent plate reader (Hamamastu FDSS). […] The plates were read for 90 seconds.
(§2) Interaction of cell lines with test compounds was evaluated by measuring the membrane potential of GABAA, in response to test compounds using the following protocol.

GABAA α1β3γ2s (α1) = target: T2, GABAA α1β3γ2s (α1) (Homo sapiens, UniProt P14867+P18507+P28472); format: cell-based; conditions: CHO cells, membrane potential dye
T2 construct: expressed in transfected cells; host or cells: CHO
T2 sequence (P14867 28-456): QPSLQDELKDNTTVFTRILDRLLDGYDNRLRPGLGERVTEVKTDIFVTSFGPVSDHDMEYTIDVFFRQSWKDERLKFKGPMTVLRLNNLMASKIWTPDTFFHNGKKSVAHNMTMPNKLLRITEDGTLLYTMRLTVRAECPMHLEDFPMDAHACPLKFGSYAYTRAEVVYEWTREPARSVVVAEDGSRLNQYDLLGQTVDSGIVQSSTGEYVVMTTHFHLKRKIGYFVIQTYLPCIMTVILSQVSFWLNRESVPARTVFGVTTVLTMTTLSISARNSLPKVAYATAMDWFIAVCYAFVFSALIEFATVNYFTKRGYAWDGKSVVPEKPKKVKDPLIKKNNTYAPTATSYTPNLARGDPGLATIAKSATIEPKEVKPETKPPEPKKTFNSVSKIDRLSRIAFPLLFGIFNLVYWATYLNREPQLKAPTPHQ
T2 sequence (P28472 26-473): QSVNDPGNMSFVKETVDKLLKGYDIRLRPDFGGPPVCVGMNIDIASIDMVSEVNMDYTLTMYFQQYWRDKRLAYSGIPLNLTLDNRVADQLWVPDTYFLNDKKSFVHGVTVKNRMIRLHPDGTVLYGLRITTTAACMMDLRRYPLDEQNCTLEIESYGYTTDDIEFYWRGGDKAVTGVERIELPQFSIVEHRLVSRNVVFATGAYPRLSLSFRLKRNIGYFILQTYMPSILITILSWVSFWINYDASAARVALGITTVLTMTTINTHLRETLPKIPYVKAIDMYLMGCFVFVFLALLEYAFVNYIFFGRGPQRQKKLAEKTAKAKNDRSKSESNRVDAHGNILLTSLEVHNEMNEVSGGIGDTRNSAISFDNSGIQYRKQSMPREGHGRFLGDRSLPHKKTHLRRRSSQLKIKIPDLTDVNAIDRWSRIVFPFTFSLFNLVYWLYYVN
T2 sequence (P18507 40-467 isoform P18507-1 limits assumed): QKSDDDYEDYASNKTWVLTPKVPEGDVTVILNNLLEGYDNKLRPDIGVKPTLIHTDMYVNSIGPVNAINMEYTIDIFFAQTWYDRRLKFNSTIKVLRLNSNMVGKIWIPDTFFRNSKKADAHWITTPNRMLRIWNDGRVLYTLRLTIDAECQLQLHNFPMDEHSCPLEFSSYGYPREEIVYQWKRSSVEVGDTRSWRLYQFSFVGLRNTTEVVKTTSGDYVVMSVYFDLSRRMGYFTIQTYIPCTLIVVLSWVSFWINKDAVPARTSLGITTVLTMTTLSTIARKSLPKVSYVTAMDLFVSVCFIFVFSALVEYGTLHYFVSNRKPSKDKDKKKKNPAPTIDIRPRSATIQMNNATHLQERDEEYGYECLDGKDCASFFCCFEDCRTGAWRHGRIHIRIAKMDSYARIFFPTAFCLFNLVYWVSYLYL
Method: as §1, §2

GABAA α3β3γ2s (α3) = target: T3, GABAA α3β3γ2s (α3) (Homo sapiens, UniProt P18507+P28472+P34903); format: cell-based; conditions: CHO cells, membrane potential dye
T3 construct: expressed in transfected cells; host or cells: CHO
T3 sequence (P34903 29-492): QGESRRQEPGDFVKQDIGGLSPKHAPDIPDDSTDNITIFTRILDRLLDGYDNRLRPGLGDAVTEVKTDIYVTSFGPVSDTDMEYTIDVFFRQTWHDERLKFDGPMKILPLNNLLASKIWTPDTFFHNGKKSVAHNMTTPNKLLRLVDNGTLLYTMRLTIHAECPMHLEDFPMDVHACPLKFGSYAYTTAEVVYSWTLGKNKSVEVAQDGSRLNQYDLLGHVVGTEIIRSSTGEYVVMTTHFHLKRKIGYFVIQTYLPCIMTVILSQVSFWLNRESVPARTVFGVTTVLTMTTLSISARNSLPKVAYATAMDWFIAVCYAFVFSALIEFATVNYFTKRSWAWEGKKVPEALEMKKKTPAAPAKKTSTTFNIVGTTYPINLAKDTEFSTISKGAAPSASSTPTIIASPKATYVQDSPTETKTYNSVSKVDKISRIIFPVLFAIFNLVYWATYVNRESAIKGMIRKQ
T3 sequence (P28472 26-473): as the sequence (P28472 26-473) above
T3 sequence (P18507 40-467 isoform P18507-1 limits assumed): as the sequence (P18507 40-467 isoform P18507-1 limits assumed) above
Method: as §1, §2

GABAA α5β3γ2s (α5) = target: T4, GABAA α5β3γ2s (α5) (Homo sapiens, UniProt P18507+P28472+P31644); format: cell-based
T4 construct: expressed in transfected cells; host or cells: CHO
T4 sequence (P31644 32-462): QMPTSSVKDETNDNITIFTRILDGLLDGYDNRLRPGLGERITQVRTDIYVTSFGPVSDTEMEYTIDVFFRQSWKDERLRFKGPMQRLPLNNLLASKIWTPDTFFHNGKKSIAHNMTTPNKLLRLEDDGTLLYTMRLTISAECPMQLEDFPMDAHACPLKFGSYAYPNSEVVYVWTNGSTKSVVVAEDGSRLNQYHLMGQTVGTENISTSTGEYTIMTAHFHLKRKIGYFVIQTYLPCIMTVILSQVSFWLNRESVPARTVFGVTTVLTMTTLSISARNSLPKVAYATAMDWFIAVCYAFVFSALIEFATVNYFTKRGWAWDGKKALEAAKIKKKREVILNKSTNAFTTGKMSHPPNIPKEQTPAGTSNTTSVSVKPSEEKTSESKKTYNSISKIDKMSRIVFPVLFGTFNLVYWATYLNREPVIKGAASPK
T4 sequence (P28472 26-473): as the sequence (P28472 26-473) above
T4 sequence (P18507 40-467 isoform P18507-1 limits assumed): as the sequence (P18507 40-467 isoform P18507-1 limits assumed) above
Method: as §1, §2

[1] = tested on: GABAA (α1β3γ2s, α2β3γ2s, α3β3γ2s, α5β3γ2s); experiment: In-cell readout assay using halide-sensitive meYFP, GABAA-meYFP-CHO cells; format: cell-based, human; conditions: increasing concentrations of GABA ligand
Method: The response of GABAA (subunit combinations of α1β3γ2s (A1), α2β3γ2s (A2), α3β3γ2s (A3) and α5β3γ2s (A5)) expressing CHO cells of the invention to test compounds was evaluated using the following protocol for an in-cell readout assay.
Cells were plated 24 hours prior to assay at 10-25,000 cells per well in 384 well plates in growth media (Ham's F-12 media plus FBS and glutamine). […] The assay plates were then loaded on the FDSS (Hamamatsu Corporation). […] The plates were read for 90 seconds.

[2] = target: T5, sweet taste receptor (T1R2/T1R3) (Homo sapiens, UniProt Q7RTX0+Q8TE23, C757R/I191V/I486V/R317G); experiment: Sweet cell-based calcium flux assay, HEK293T cells expressing T1R2, T1R3 and mouse Gα15; conditions: FIG. 24, one assay; read-out: EC50 values (calcium flux)
T5 construct: expressed in transfected cells; host or cells: HEK293T (ATCC CRL-11268)
T5 sequence (Q8TE23 20-839 I191V/R317G/I486V): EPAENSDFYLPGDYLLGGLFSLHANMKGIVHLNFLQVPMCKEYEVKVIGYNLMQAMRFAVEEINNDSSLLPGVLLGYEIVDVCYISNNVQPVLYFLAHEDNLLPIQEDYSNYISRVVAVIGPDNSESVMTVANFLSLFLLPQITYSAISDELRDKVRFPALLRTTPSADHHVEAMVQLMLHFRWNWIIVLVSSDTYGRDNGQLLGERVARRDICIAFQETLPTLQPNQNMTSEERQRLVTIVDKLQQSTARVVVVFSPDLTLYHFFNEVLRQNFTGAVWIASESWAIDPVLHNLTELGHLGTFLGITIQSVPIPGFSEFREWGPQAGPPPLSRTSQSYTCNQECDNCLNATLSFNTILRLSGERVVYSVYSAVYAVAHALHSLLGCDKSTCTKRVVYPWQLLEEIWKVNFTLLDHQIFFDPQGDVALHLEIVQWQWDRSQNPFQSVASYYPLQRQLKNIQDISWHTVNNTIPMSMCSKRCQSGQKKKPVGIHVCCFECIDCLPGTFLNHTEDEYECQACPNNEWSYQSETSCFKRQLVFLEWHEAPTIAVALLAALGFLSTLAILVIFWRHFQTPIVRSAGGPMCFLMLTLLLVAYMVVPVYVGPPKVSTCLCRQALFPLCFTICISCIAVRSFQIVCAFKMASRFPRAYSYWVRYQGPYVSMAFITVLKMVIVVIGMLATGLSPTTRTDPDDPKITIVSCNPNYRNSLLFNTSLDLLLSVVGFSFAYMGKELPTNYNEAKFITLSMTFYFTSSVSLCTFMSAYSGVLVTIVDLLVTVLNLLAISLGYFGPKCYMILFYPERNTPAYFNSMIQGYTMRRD
T5 sequence (Q7RTX0 21-852 C757R): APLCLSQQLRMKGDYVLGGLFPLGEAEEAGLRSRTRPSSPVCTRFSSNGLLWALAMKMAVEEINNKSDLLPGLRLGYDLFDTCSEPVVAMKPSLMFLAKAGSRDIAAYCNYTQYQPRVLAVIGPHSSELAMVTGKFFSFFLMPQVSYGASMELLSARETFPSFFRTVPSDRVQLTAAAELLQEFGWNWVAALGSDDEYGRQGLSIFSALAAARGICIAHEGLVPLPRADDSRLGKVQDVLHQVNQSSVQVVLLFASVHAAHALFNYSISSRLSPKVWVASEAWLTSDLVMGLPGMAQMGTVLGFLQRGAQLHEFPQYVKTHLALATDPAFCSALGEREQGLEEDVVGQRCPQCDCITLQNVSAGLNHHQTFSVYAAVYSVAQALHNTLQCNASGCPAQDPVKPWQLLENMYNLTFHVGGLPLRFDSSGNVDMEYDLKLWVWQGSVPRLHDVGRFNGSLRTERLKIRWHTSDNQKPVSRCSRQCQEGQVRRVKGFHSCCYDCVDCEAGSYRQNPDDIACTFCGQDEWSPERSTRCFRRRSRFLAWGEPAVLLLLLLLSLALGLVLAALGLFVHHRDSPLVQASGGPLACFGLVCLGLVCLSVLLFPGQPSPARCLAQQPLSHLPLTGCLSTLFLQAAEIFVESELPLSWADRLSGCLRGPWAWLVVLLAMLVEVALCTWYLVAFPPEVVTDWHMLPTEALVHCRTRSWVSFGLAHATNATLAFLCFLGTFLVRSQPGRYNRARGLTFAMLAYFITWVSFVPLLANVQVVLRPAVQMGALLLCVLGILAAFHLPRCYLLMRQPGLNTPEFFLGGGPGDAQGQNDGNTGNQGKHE
Text: Plates are then loaded on a high throughput plate reader (Hamamatsu FDSS). […] Calcium flux is detected for 90 seconds.

[3] = target: T6, sweet taste receptor (human T1R2 and T1R3 subunits, mouse Gα15) (Homo sapiens, UniProt Q7RTX0+Q8TE23, C757R/I191V/I486V/R317G); experiment: sweet taste receptor-expressing cell-based assay (calcium flux); conditions: natural, high intensity and artificial sweeteners; FIGS. 23 and 24
T6 construct: expressed in transfected cells; host or cells: HEK293T (ATCC CRL-11268)
T6 sequence (Q8TE23 20-839 I191V/R317G/I486V): T5 sequence (Q8TE23 20-839 I191V/R317G/I486V)
T6 sequence (Q7RTX0 21-852 C757R): T5 sequence (Q7RTX0 21-852 C757R)
Text: FIG. 24 (A-C) is series of line graphs representing the data obtained in various dose response experiments using sweet taste receptor agonists in a sweet taste receptor-expressing cell-based assay (using cells of this invention). (A) The responses of a sweet taste receptor-expressing cell line to natural caloric sweeteners were plotted as a function of the agonist concentration. (B) Dose response curves of common artificial sweeteners in a sweet taste receptor-expressing cell-based assay. (C) Dose response curves of natural high-intensity sweeteners in a sweet taste receptor-expressing cell-based assay.
FIG. 25 is a series of representative response traces generated after performing a sweet taste receptor-expressing cell-based assay using cells of this invention.
To identify a taste receptor modulator (e.g., umami taste receptor modulator or sweet taste receptor modulator), one exposes a cell or cell line of the invention to a test compound under conditions in which the taste receptor (e.g., umami taste receptor or sweet taste receptor) would be expected to be functional and then detects a statistically significant change (e.g., p<0.05) in taste receptor activity (e.g., umami taste receptor activity or sweet taste receptor activity) compared to a suitable control, e.g., cells that are not exposed to the test compound. Positive and/or negative controls using known agonists or antagonists and/or cells expressing different combinations of taste receptor subunits (e.g., umami taste receptor subunits or sweet taste receptor subunits) (and optionally a G protein) may also be used. In some embodiments, the taste receptor activity (e.g., umami taste receptor activity or sweet taste receptor activity) to be detected and/or measured is calcium release from the endoplasmic reticulum as a result of the down stream signaling events following taste receptor activation (e.g., umami taste receptor activation or sweet taste receptor activation). One of ordinary skill in the art would understand that various assay parameters may be optimized, e.g., signal to noise ratio.
See, e.g., FIGS. 23 and 24.

human GC-C (human) = human GC-C (human) (UniProt P25092); experiment: cell-based or functional assay
Chain of human GC-C (human) (P25092 24-1073): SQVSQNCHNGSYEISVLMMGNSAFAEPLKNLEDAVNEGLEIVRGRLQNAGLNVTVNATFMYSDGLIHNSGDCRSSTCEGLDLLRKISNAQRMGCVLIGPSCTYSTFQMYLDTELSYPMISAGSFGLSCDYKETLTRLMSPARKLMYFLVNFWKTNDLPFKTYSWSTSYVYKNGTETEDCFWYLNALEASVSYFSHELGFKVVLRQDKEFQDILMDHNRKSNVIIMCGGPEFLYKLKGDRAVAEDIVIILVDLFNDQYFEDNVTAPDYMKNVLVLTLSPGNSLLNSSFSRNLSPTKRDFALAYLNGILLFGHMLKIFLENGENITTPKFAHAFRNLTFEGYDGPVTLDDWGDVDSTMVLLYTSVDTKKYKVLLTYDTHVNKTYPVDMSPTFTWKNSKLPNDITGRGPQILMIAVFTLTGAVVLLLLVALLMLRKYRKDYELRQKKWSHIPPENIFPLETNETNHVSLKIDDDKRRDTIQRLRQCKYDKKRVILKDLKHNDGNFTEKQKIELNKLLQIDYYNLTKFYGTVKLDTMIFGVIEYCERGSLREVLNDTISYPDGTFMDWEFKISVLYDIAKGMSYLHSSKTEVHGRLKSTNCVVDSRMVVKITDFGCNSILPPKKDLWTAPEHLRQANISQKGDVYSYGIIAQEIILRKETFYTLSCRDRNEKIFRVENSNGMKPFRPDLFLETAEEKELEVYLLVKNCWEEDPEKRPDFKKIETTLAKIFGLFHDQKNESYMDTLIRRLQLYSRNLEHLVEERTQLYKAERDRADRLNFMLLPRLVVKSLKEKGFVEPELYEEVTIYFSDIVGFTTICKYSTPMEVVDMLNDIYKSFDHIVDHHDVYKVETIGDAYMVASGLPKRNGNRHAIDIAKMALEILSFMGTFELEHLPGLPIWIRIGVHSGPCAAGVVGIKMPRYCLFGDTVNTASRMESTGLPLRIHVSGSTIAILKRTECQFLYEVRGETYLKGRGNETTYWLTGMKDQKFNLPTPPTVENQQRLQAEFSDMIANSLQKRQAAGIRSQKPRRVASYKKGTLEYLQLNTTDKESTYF

[4] = CHO cells, membrane potential dye

T1 sequence (P47869 29-451 A343T): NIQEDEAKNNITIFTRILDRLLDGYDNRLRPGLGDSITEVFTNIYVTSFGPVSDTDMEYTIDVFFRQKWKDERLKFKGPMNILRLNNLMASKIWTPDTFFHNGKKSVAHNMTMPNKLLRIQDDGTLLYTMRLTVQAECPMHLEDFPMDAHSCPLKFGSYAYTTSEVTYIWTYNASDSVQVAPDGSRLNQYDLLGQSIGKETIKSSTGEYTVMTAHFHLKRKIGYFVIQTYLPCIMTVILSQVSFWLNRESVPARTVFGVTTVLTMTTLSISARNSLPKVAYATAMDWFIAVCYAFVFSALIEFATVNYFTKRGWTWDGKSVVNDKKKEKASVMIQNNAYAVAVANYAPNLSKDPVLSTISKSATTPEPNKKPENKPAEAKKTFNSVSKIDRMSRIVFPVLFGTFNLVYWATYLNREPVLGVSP
T1 sequence (P28472 26-473, stated change not applied): as the sequence (P28472 26-473) above
T1 sequence (P18507 40-467 isoform P18507-1 limits assumed, stated change not applied): as the sequence (P18507 40-467 isoform P18507-1 limits assumed) above

Row | Compound | EC50 (GABAA α2β3γ2s (α2); [4]) | EC50 (GABAA α1β3γ2s (α1)) | EC50 (GABAA α3β3γ2s (α3)) | response of sweet taste receptor cells and cell lines to known classes of sweet compounds [3] | further results
1 | Ivermectin | 767 nM | 4260 nM | 798 nM | – | EC50 (GABAA α5β3γ2s (α5); [4]): 687 nM
2 | CC12CCC(O)CC1CCC1C2CCC2(C)C(C(=O)CO)CCC12 (stereo not drawn) [3-alpha, 21-dihydroxy-5-alpha-pregnan-20-one] | 123 nM | 382 nM | 80.2 nM | – | EC50 (GABAA α5β3γ2s (α5); [4]): 17.3 nM
3 | COc1cc(/C=C(\C#N)C(=O)c2ccc(O)c(O)c2)cc(I)c1O [I—OMe Tyrphostin 538] | 1500 nM | 3500 nM | 2200 nM | – | EC50 Values α5 (result in words) (GABAA α5β3γ2s (α5); [4]): Not active
4 | NCCCC(=O)O [GABA] | – | – | – | – | quench of meYFP signal [1]: increasing quench of meYFP signal
5 | CC(C)(C)c1cc(C=C(C#N)C#N)cc(C(C)(C)C)c1O [Tyrphostin A9] | 880 nM | 1800 nM | 5000 nM | – | EC50 (GABAA α5β3γ2s (α5); [4]): 54000 nM
6 | OC[C@H]1O[C@@](CO)(O[C@H]2O[C@H](CO)[C@@H](O)[C@H](O)[C@H]2O)[C@@H](O)[C@@H]1O [sucrose] | – | – | – | respond | EC50 [2]: < 3.5 mM
7 | O=C1NS(=O)(=O)c2ccccc21 [saccharin] | – | – | – | respond | –
8 | guanylin (peptide) | – | – | – | – | EC50 of guanylin dose-response (absorbance as a function of changes in cGMP levels) (human GC-C (human)): 1.1 nM; level of cGMP (human GC-C (human)): 6 pmol/mL
9 | C=C1C[C@@]23CC[C@H]4[C@@](C)(CCC[C@@]4(C)C(=O)O[C@@H]4O[C@H](CO)[C@@H](O)[C@H](O)[C@H]4O)[C@@H]2CC[C@]1(O[C@@H]1O[C@H](CO)[C@@H](O)[C@H](O[C@@H]2O[C@H](CO)[C@@H](O)[C@H](O)[C@H]2O)[C@H]1O[C@@H]1O[C@H](CO)[C@@H](O)[C@H](O)[C@H]1O)C3 [rebaudioside A] | – | – | – | respond | –
10 | COC(=O)[C@H](Cc1ccccc1)NC(=O)[C@@H](N)CC(=O)O [asparatame] (H-Asp-Phe-OMe) | – | – | – | respond | –
11 | CC1=CC(=O)NS(=O)(=O)O1 [acesulfamek] | – | – | – | respond | –
12 | CC(=O)C1CCC2C3CCC4CC(O)CCC4(C)C3CCC12C (stereo not drawn) [5-alpha-Pregnan-3alpha-ol-20-one] | – | 692 nM | 80 nM | – | EC50 (GABAA α2β3γ2s (α2)): 140 nM; EC50 (GABAA α5β3γ2s (α5)): 33.6 nM
13 | mogroside | – | – | – | respond | –
